# Experimental data as given in patent US9044397B2, “Medical devices with galvanic particulates” (Ethicon, Inc., priority 2009, dated 2015).
# Columns and labels:
# Type in all cases: cell-based
# C. albicans [1] = test: Sustained efficacy, zone of inhibition day 1 and re-plated day 2; conditions: 1% in agar disc
# Procedure: (§1) Agars discs containing either galvanic particulates as described in Example 1(a) or zinc acetate at 1% were placed on TSA agar surface inoculated with about 6 log CFU of MRSA or C. albicans and incubated at 37° C. for 24 hr (day-1).
# MRSA [2] = test: as above; conditions: 1% in agar disc
# Procedure: as §1
# C. albicans [3] = test: Zone of inhibition on TSA agar versus copper acetate and zinc acetate; conditions: about 6 log CFU, 37° C. 24 hr
# Procedure: (§2) Zone of inhibition testing was performed on agar discs containing copper-zinc galvanic particulates from Example 1(a) at 0.5%, Zn acetate at 0.5%, and Cu acetate at 0.1%. The discs were placed on TSA agar surface, inoculated with about 6 log CFU of MRSA or C. albicans, and incubated at 37° C. for 24 hr.
# MRSA [4] = test: as above; conditions: about 6 log CFU, 37° C. 24 hr
# Procedure: as §2
# [5] = same disc moved to newly inoculated plate, day-2
Compound,"zone of inhibition, C. albicans, day 1 (C. albicans [1]; day-1, 24 hr at 37° C.)","zone of inhibition, C. albicans, day 2 (C. albicans [1]; [5])","zone of inhibition, MRSA, day 1 (MRSA [2]; day-1, 24 hr at 37° C.)","zone of inhibition, MRSA, day 2 (MRSA [2]; [5])","zone of inhibition, C. albicans (C. albicans [3]; 0.5% in agar disc)","zone of inhibition, MRSA (MRSA [4]; 0.5% in agar disc)","zone of inhibition, C. albicans (C. albicans [3]; 0.1% in agar disc)","zone of inhibition, MRSA (MRSA [4]; 0.1% in agar disc)"
"CC(=O)[O-].CC(=O)[O-].[Zn+2] [Zinc Acetate, zinc acetate]",produce a zone of inhibition,did not show any inhibition,produce a zone of inhibition,did not show any inhibition,"smaller zone of inhibition, approximately one half the radius","smaller zone of inhibition, approximately one half the radius",–,–
copper acetate,–,–,–,–,–,–,did not show any visible zone of inhibition,did not show any visible zone of inhibition
